The text below walks through data of patent US20200405604A1, “COSMETIC COMPOSITION COMPRISING 4-(3-ETHOXY-4-HYDROXYPHENYL)-2-BUTANONE” (L'OREAL, priority 2011, published 2020).

The nature of the data set: Solubility test in test solvents. It counts as physicochemical. As to the method: The test solvent was poured into a beaker, an amount of the compound 4-(3-ethoxy-4-hydroxyphenyl)-2-butanone was added with magnetic stirring and the mixture was left to stand for between 1 hour and 24 hours. The mixture was then heated to 50° C. and then cooled to room temperature (25° C.) over 24 hours. The system was then observed to see if the amount of compound introduced recrystallized or remained dissolved.
The amount of compound that can be dissolved in the test solvent was determined in this manner. The maximum value corresponds to the amount at and above which the ester compound stops dissolving in the evaluated solvent.

Take `CCOc1cc(CCC(C)=O)ccc1O` [4-(3-ethoxy-4-hydroxyphenyl)-2-butanone]: under “in water or glycerol”, the “Solubility (in words)” value was “very sparingly soluble”. The “Dissolution (in words)” value runs as follows: (with ethanol, 1,2-propylene glycol, 1,3-propanediol, PEG-8 and propylene carbonate) “very satisfactorily dissolved”; (with glycerol) “very sparingly dissolved”.
